{"source": "patent US8557812B2", "about": "“Small molecule inhibitors of anti-apoptotic BCL-2 family members and the uses thereof” (The Regents of the University of Michigan, priority 2004, dated 2013)", "key": {"[1]": {"assay": "Body weight of xenograft mice (Example 9)", "assay_type": "in vivo", "details": "doses as in Example 9", "description": "To monitor toxicity, animal body weights were measured and plotted in FIG. 10."}, "PC-3 tumor": {"system": "PC-3 tumor", "assay": "PC-3 xenograft tumor growth, single agents (Example 8)", "assay_type": "in vivo, NCr-nu male nude mice", "description": "TAXOTERE (TXT) and cisplatin (CDDP) were used as positive controls. For the PC-3 tumor model, 5×10^6 PC-3 cells were injected into the flanks of NCr-nu male nude mice on both sides. The quarter-MTD and half-MTD doses, i.e., 20 and 40 mg/kg, i.v. q.d.×5 for 3 weeks was tested."}, "[2]": {"system": "PrEC (human normal prostate epithelial cells)", "assay": "Caspase-3 activation in PrEC cells (flow cytometry)", "assay_type": "cell-based", "details": "48 hours", "description": "(§1) The cells were analyzed by flow cytometry in the red channel and the results are shown as percent of cells having active caspase-3 (FIG. 5)."}, "Bcl-2": {"target": "Bcl-2 (Homo sapiens, UniProt P10415)", "sequence (P10415 92-205 limits assumed)": "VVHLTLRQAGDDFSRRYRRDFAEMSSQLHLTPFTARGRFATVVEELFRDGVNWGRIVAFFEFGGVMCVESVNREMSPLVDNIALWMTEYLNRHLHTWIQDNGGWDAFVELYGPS", "assay": "Fluorescence polarization in vitro Bcl-2 binding assay", "description": "Bcl-2 used in this assay is a recombinant His-fused soluble protein. […] Inc., Research Triangle Park, N.C.). […] The unlabeled Bid peptide is used as the positive control. The Ki values were calculated using our developed equation for FP assay (Nikolovska-Coleska et al., Anal. Biochem., 2004, in press). The program for calculating a Ki value is available free of charge via the Internet at http://sw16.im.med.umich.edu/software/calc_ki/."}, "PC-3 cells [3]": {"system": "PC-3 cells", "assay": "Apoptosis by Annexin V-FITC staining and flow cytometry", "assay_type": "cell-based, human", "details": "2.5 μM, 45 hours"}, "PC-3 xenograft": {"system": "PC-3 xenograft", "details": "for Complete tumor regression: tumors regressed/total", "experimental": "The tumor sizes were measured 2 times a week and calculated as: Tumor Volume=(A×B^2)/2 where A and B are the tumor length and width (in mm), respectively."}, "in vivo": {"assay": "in vivo", "details": "female, Balb/c, mouse, iv"}, "[4]": {"system": "LnCap, PC-3, DU145c, 2LMP and MCF-10A cell lines", "assay": "Inhibition of cell growth in human cancer cell lines (MTT)", "assay_type": "cell-based", "details": "120 h, each of LnCap, 5 days", "description": "The cells were then incubated at 37° C. with 5% CO2 for 5 days, followed by detection of cell viability with MTT. Untreated cells were used as 100% growth."}, "PC-3 cells [5]": {"system": "PC-3 cells", "assay": "Caspase-3 activation in PC-3 cells (flow cytometry)", "assay_type": "cell-based, human", "details": "5 μM, 48 hours", "description": "as §1"}, "MDA-231 cells": {"system": "MDA-231 cells", "assay": "Cell survival with CDDP and TW-37 alone or in combination", "assay_type": "cell-based, human", "details": "0.2 μM or 0.3 μM TW-37, 42 hours", "source_text": "CDDP is a DNA damaging agent and can effectively induce apoptosis in MDA-231 breasted cancer cells and is also a clinically used chemotherapeutic drug for cancer."}}, "note": "Like-named read-outs stand apart in the source and are kept apart here."}
{"smiles": "CC(C)c1ccccc1Cc1cc(C(=O)Nc2ccc(S(=O)(=O)c3ccccc3C(C)(C)C)cc2)c(O)c(O)c1O", "note": "[TW-37, N-[(2-tert-Butyl-benzenesulfonyl)-phenyl]-2,3,4-trihydroxy-5-(2-isopropyl-benyl)-benzamide]", "values": [{"measurement": "body weight during treatment", "setting": "[1]", "result": "no obvious body weight loss"}, {"measurement": "potency on tumor growth compared with TAXOTERE", "setting": "PC-3 tumor; 40 mg/kg TW-37 vs TXT 7.5 mg/kg i.v. once a week", "result": "as potent as TAXOTERE"}, {"measurement": "inhibition of tumor growth in vivo", "setting": "PC-3 tumor; 20 and 40 mg/kg i.v. q.d.5×3 weeks", "result": "significantly inhibiting tumor growth in vivo"}, {"measurement": "effect on caspase-3 activation in normal prostate epithelial cells", "setting": "[2]", "result": "no effect"}, {"measurement": "IC50", "setting": "Bcl-2", "result": "≤ 1", "unit": "µM"}, {"measurement": "apoptotic cells", "setting": "PC-3 cells [3]", "result": "about 35%"}, {"measurement": "T-C (days) tumor growth delay", "setting": "PC-3 xenograft; TW-37 40 mg/kg", "result": 37, "unit": "days"}, {"measurement": "activity under the NCI criteria (T/C<42%)", "setting": "PC-3 xenograft; TW-37 40 mg/kg", "result": "significantly active"}, {"measurement": "T/C (%) tumor growth inhibition", "setting": "PC-3 xenograft; TW-37 40 mg/kg i.v. q.d.5×3 weeks", "result": 34.5, "unit": "%"}, {"measurement": "tumor growth compared to control", "setting": "PC-3 xenograft; TW-37 40 mg/kg, p<0.001, two-way ANOVA, n=10", "result": "significantly inhibited tumor growth"}, {"measurement": "Complete tumor regression", "setting": "PC-3 xenograft; TW-37 40 mg/kg", "result": "0/10"}, {"measurement": "MTD at 3 weeks", "setting": "in vivo", "result": 80, "unit": "mg/kg"}, {"measurement": "IC50", "setting": "[4]", "result": "1 to 5", "unit": "µM"}, {"measurement": "cells having activated caspase-3", "setting": "PC-3 cells [5]", "result": "about 60%"}, {"measurement": "effect on CDDP induced cell death", "setting": "MDA-231 cells", "result": "enhanced the CDDP induced cell death"}]}
{"smiles": "CC(=O)O[C@@]12CO[C@@H]1C[C@H](O)[C@@]1(C)C(=O)[C@H](O)C3=C(C)[C@@H](OC(=O)[C@H](O)[C@@H](NC(=O)OC(C)(C)C)c4ccccc4)C[C@@](O)([C@@H](OC(=O)c4ccccc4)[C@H]21)C3(C)C", "note": "[TAXOTERE, (2R,3S)-N-carboxy-3-phenylisoserine, N-tert-butyl ester, 13-ester with 5b-20-epoxy-12a,4,7b,10b,13a-hexahydroxytax-11-en-9-one 4-acetate 2-benzoate, trihydrate]", "values": [{"measurement": "body weight during treatment", "setting": "[1]", "result": "reversible body weight loss"}, {"measurement": "T-C (days) tumor growth delay", "setting": "PC-3 xenograft; TXT 7.5 mg/kg", "result": 30, "unit": "days"}, {"measurement": "T/C (%) tumor growth inhibition", "setting": "PC-3 xenograft; TXT 7.5 mg/kg", "result": 55.1, "unit": "%"}, {"measurement": "activity under the NCI criteria (T/C<42%)", "setting": "PC-3 xenograft; TXT 7.5 mg/kg", "result": "is not"}, {"measurement": "Complete tumor regression", "setting": "PC-3 xenograft; TXT 7.5 mg/kg", "result": "0/10"}, {"measurement": "T-C (days) tumor growth delay", "setting": "PC-3 xenograft; TXT 11 mg/kg", "result": 32, "unit": "days"}, {"measurement": "T/C (%) tumor growth inhibition", "setting": "PC-3 xenograft; TXT 11 mg/kg", "result": 32.1, "unit": "%"}, {"measurement": "activity under the NCI criteria (T/C<42%)", "setting": "PC-3 xenograft; TXT 11 mg/kg", "result": "significantly active"}, {"measurement": "Complete tumor regression", "setting": "PC-3 xenograft; TXT 11 mg/kg", "result": "0/10"}]}
